According to patent publication US20020051978A1, “Methods and compositions for the identification, assessment, prevention and therapy of human cancers” (priority 2000, published 2002):
Counter-ions that a name gives are not always drawn.

Test system: 60 cancer cell lines (NCI 60 cancer cell line series)
Experiment: NCI-DTP in vitro cancer screen, sulforhodamine B (SRB) growth inhibition, 48 hour exposure
Format: cell-based, human
Set-up: key to sensitivity class Ovarian OVCAR-8 CL6005 / sensitivity class Ovarian SK-OV-3 CL6011 / sensitivity class Prostate DU-145 CL11003 / sensitivity class NSCLC NCI-H522 CL1003 / sensitivity class Ovarian IGROV1 CL6010 / sensitivity class Ovarian OVCAR-4 CL6002 / sensitivity class Prostate PC-3(I) CL11001 / sensitivity class Renal A498 CL9013 / sensitivity class Renal SN12C CL9008: sensitivity class: 1 = Low, 2 = Medium, 3 = High
Details: for sensitivity class NSCLC NCI-H23(I) CL1001: cell line NSCLC NCI-H23(I); for sensitivity class NSCLC NCI-H332M CL1017: cell line NSCLC NCI-H332M; for sensitivity class NSCLC NCI-H460 CL1021: cell line NSCLC NCI-H460, CL1021; for sensitivity class NSCLC NCI-H522 CL1003: cell line NSCLC NCI-H522, CL1003; for sensitivity class Ovarian IGROV1 CL6010: cell line Ovarian IGROV1, CL6010; for sensitivity class Ovarian OVCAR-3 CL6001: cell line Ovarian OVCAR-3, CL6001; for sensitivity class Ovarian OVCAR-8 CL6005: cell line Ovarian OVCAR-8, CL6005; for sensitivity class Ovarian SK-OV-3 CL6011: cell line Ovarian SK-OV-3, CL6011; for sensitivity class Renal 786-O CL9018: cell line Renal 786-O; for sensitivity class Renal CAKI-1 CL9015: cell line Renal CAKI-1, CL9015; for sensitivity class Renal RXF-393 CL9016: cell line Renal RXF-393, CL9016; for sensitivity class Renal SN12C CL9008: cell line Renal SN12C; for sensitivity class Renal TK10 CL9024: cell line Renal TK10, CL9024; for sensitivity class Renal UO-31 CL9004: cell line Renal UO-31, CL9004
Description: Cancer Cell Line Preparation. Sixty cancer cell lines were obtained from the National Cancer Institute Developmental Therapeutics Program (NCI-DTP). Procedures for growing cells and testing compounds have been described previously (Scudiero et al., Cancer Res. 1988, 48:4827-4833; Stinson et al., Anticancer Res.; Myers et al., Electrophoresis 1997, 18:647-653). Cells are plated on day 0 at a density individualized for each cell line so that they will generally be sub-confluent at the end of the assay period. On day 1, a compound is added in the format for a duplicate-well, 5-dose, ten-fold interval dose response study.
No-drug, no-cell and no-growth controls are included. On day 3 the cells are processed for staining with sulforhodamine B (SRB), which reflects the amount of cell mass present at the end of a 48 hour exposure to the test agent. From dose response curves based on the SRB data, various parameters can be determined. The one used in the present study is the G15o, defined as the concentration of compound required to inhibit growth of the cell line by 50%. More precisely, the quantity used in the calculation to be described is the potency measure -log{GI50}.
Activity database (A). Table IA, consisting of the growth inhibition (GI5o) values for the 60 cell lines and 24 compounds, was created from the NCI-DTP in vitro cancer screen database. This subset of compounds was selected from the larger 23,000 compound database available from the DTP. The compounds were selected on the basis of their known mechanism of action and chemical structure. The average potency—log{GI50} was extracted from the comma-delimited text files available through the Web at http://www.nci.nih.gov/intra/lmp/jnwbio.htmrl. Subsequently, these log{GI5o} values were inspected manually and classified as indicating either Low, Medium or High sensitivity to each compound.

CC[C@]1(O)C[C@@H]2CN(CCc3c([nH]c4ccccc34)[C@@](C(=O)OC)(c3cc4c(cc3OC)N(C)[C@H]3[C@@](O)(C(=O)OC)[C@H](OC(C)=O)[C@]5(CC)C=CCN6CC[C@]43[C@@H]65)C2)C1 [Vinblastine sulfate]
3: classification of cell line as Low(1), Medium(2) or High(3) sensitivity to compound (Leukemia HL-60(I) (CL7008)) | classification of cell line as Low(1), Medium(2) or High(3) sensitivity to compound (Leukemia SR CL7019) | classification of cell line as Low(1), Medium(2) or High(3) sensitivity to compound (Melanoma SK-MEL-5 (CL10007)) | classification of cell line as Low(1), Medium(2) or High(3) sensitivity to compound (Melanoma UACC-62 (CL10020)) | sensitivity class NSCLC NCI-H522 CL1003 | sensitivity class Ovarian OVCAR-3 CL6001
1: classification of cell line as Low(1), Medium(2) or High(3) sensitivity to compound (Colon HCT-15 CL4015) | classification of cell line as Low(1), Medium(2) or High(3) sensitivity to compound (NSCLC EKVX (CL1008)) | sensitivity class Renal TK10 CL9024 | sensitivity class Renal UO-31 CL9004
2: classification of cell line as Low(1), Medium(2) or High(3) sensitivity to compound (CNS SF-539 CL12016) | classification of cell line as Low(1), Medium(2) or High(3) sensitivity to compound (CNS SNB-19 (CL12002)) | classification of cell line as Low(1), Medium(2) or High(3) sensitivity to compound (CNS U251(I) CL12009) | classification of cell line as Low(1), Medium(2) or High(3) sensitivity to compound (Colon HCC-2998 (CL4002)) | classification of cell line as Low(1), Medium(2) or High(3) sensitivity to compound (Colon KM12 (CL4017)) | classification of cell line as Low(1), Medium(2) or High(3) sensitivity to compound (Colon SW-620 (CL4009)) | classification of cell line as Low(1), Medium(2) or High(3) sensitivity to compound (Leukemia CCRF-CEM(I) (CL7003)) | classification of cell line as Low(1), Medium(2) or High(3) sensitivity to compound (Leukemia MOLT-4 (CL7006)) | classification of cell line as Low(1), Medium(2) or High(3) sensitivity to compound (Melanoma M14 (CL10014)) | classification of cell line as Low(1), Medium(2) or High(3) sensitivity to compound (Melanoma MALME-3M CL10002) | classification of cell line as Low(1), Medium(2) or High(3) sensitivity to compound (Melanoma SK-MEL-2 (CL10005)) | classification of cell line as Low(1), Medium(2) or High(3) sensitivity to compound (Melanoma SK-MEL-28 (CL10008)) | classification of cell line as Low(1), Medium(2) or High(3) sensitivity to compound (NSCLC A549/ATCC (CL1004)) | classification of cell line as Low(1), Medium(2) or High(3) sensitivity to compound (NSCLC HOP-62 (CL1026)) | classification of cell line as Low(1), Medium(2) or High(3) sensitivity to compound (NSCLC HOP-92 (CL1029)) | classification of cell line as Low(1), Medium(2) or High(3) sensitivity to compound (NSCLC NCI-H226 CL1013) | sensitivity class NSCLC NCI-H23(I) CL1001 | sensitivity class NSCLC NCI-H332M CL1017 | sensitivity class NSCLC NCI-H460 CL1021 | sensitivity class Ovarian IGROV1 CL6010 | sensitivity class Ovarian OVCAR-8 CL6005 | sensitivity class Ovarian SK-OV-3 CL6011 | sensitivity class Renal 786-O CL9018 | sensitivity class Renal CAKI-1 CL9015 | sensitivity class Renal RXF-393 CL9016 | sensitivity class Renal SN12C CL9008

CC[C@]1(O)C[C@@H]2CN(CCc3c([nH]c4ccccc34)[C@@](C(=O)OC)(c3cc4c(cc3OC)N(C)[C@H]3[C@@](O)(C(=O)OC)[C@H](OC(C)=O)[C@]5(CC)C=CCN6CC[C@]43[C@@H]65)C2)C1 [Vinblastinesulfate]
2: classification of cell line as Low(1), Medium(2) or High(3) sensitivity to compound (Breast MDA-MB-231 CL5005) | classification of cell line as Low(1), Medium(2) or High(3) sensitivity to compound (CNS SF-268 CL12014) | classification of cell line as Low(1), Medium(2) or High(3) sensitivity to compound (CNS SF-295 CL12015)
3: classification of cell line as Low(1), Medium(2) or High(3) sensitivity to compound (Breast BT-549 (CL5013)) | classification of cell line as Low(1), Medium(2) or High(3) sensitivity to compound (Breast HS-578T CL5006) | classification of cell line as Low(1), Medium(2) or High(3) sensitivity to compound (Breast MCF7(I) (CL5001)) | classification of cell line as Low(1), Medium(2) or High(3) sensitivity to compound (Breast MDA-MB-435 (CL5011)) | classification of cell line as Low(1), Medium(2) or High(3) sensitivity to compound (Breast MDA-N CL5012) | classification of cell line as Low(1), Medium(2) or High(3) sensitivity to compound (Breast T-47D (CL5014))
1: classification of cell line as Low(1), Medium(2) or High(3) sensitivity to compound (Breast MCF7/ADRr (CL5002))

Carboplatin
38: 2 # of Medium (number of the 60 cell lines classified Medium (2) sensitivity)
1: classification of cell line as Low(1), Medium(2) or High(3) sensitivity to compound (Breast MDA-MB-231 CL5005) | classification of cell line as Low(1), Medium(2) or High(3) sensitivity to compound (Breast MDA-MB-435 (CL5011)) | classification of cell line as Low(1), Medium(2) or High(3) sensitivity to compound (Breast T-47D (CL5014)) | classification of cell line as Low(1), Medium(2) or High(3) sensitivity to compound (Colon COLO-250 CL4010) | classification of cell line as Low(1), Medium(2) or High(3) sensitivity to compound (Colon HCC-2998 (CL4002)) | classification of cell line as Low(1), Medium(2) or High(3) sensitivity to compound (Colon HCT-15 CL4015) | classification of cell line as Low(1), Medium(2) or High(3) sensitivity to compound (Colon HT29(I) CL4001) | classification of cell line as Low(1), Medium(2) or High(3) sensitivity to compound (Colon KM12 (CL4017)) | sensitivity class NSCLC NCI-H332M CL1017 | sensitivity class Ovarian OVCAR-5 CL6003 (cell line Ovarian OVCAR-5, CL6003) | sensitivity class Prostate PC-3(I) CL11001 (cell line Prostate PC-3(I), CL11001) | sensitivity class Renal A498 CL9013 (cell line Renal A498, CL9013) | sensitivity class Renal TK10 CL9024
3: classification of cell line as Low(1), Medium(2) or High(3) sensitivity to compound (CNS SF-268 CL12014) | classification of cell line as Low(1), Medium(2) or High(3) sensitivity to compound (CNS SF-295 CL12015) | classification of cell line as Low(1), Medium(2) or High(3) sensitivity to compound (Leukemia HL-60(I) (CL7008)) | sensitivity class NSCLC NCI-H23(I) CL1001 | sensitivity class NSCLC NCI-H460 CL1021 | sensitivity class NSCLC NCI-H522 CL1003 | sensitivity class Ovarian IGROV1 CL6010
14: 1 # of Low (number of the 60 cell lines classified Low (1) sensitivity)
2: classification of cell line as Low(1), Medium(2) or High(3) sensitivity to compound (Breast BT-549 (CL5013)) | classification of cell line as Low(1), Medium(2) or High(3) sensitivity to compound (Breast HS-578T CL5006) | classification of cell line as Low(1), Medium(2) or High(3) sensitivity to compound (Breast MCF7(I) (CL5001)) | classification of cell line as Low(1), Medium(2) or High(3) sensitivity to compound (Breast MCF7/ADRr (CL5002)) | classification of cell line as Low(1), Medium(2) or High(3) sensitivity to compound (Breast MDA-N CL5012) | classification of cell line as Low(1), Medium(2) or High(3) sensitivity to compound (CNS SF-539 CL12016) | classification of cell line as Low(1), Medium(2) or High(3) sensitivity to compound (CNS SNB-19 (CL12002)) | classification of cell line as Low(1), Medium(2) or High(3) sensitivity to compound (CNS SNB-75(I) CL12005) | classification of cell line as Low(1), Medium(2) or High(3) sensitivity to compound (CNS U251(I) CL12009) | classification of cell line as Low(1), Medium(2) or High(3) sensitivity to compound (Colon HCT-116 (CL4003)) | classification of cell line as Low(1), Medium(2) or High(3) sensitivity to compound (Colon SW-620 (CL4009)) | classification of cell line as Low(1), Medium(2) or High(3) sensitivity to compound (Leukemia CCRF-CEM(I) (CL7003)) | classification of cell line as Low(1), Medium(2) or High(3) sensitivity to compound (Leukemia K562(I) CL7005) | classification of cell line as Low(1), Medium(2) or High(3) sensitivity to compound (Leukemia MOLT-4 (CL7006)) | classification of cell line as Low(1), Medium(2) or High(3) sensitivity to compound (Leukemia RPMI-8226(I) (CL7010)) | classification of cell line as Low(1), Medium(2) or High(3) sensitivity to compound (Leukemia SR CL7019) | classification of cell line as Low(1), Medium(2) or High(3) sensitivity to compound (Melanoma LOX IMVI CL10001) | classification of cell line as Low(1), Medium(2) or High(3) sensitivity to compound (Melanoma M14 (CL10014)) | classification of cell line as Low(1), Medium(2) or High(3) sensitivity to compound (Melanoma MALME-3M CL10002) | sensitivity class Ovarian OVCAR-3 CL6001 | sensitivity class Ovarian OVCAR-4 CL6002 (cell line Ovarian OVCAR-4, CL6002) | sensitivity class Ovarian OVCAR-8 CL6005 | sensitivity class Ovarian SK-OV-3 CL6011 | sensitivity class Prostate DU-145 CL11003 (cell line Prostate DU-145, CL11003) | sensitivity class Renal 786-O CL9018 | sensitivity class Renal ACHN CL9023 (cell line Renal ACHN, CL9023) | sensitivity class Renal CAKI-1 CL9015 | sensitivity class Renal RXF-393 CL9016 | sensitivity class Renal SN12C CL9008 | sensitivity class Renal UO-31 CL9004
8: 3 # of High (number of the 60 cell lines classified High (3) sensitivity)
